pIC50: −log10 of the molar value.

This experiment has as its target T1, Neprilysin (Rattus norvegicus, UniProt P07861).
T1 sequence (P07861 whole entry): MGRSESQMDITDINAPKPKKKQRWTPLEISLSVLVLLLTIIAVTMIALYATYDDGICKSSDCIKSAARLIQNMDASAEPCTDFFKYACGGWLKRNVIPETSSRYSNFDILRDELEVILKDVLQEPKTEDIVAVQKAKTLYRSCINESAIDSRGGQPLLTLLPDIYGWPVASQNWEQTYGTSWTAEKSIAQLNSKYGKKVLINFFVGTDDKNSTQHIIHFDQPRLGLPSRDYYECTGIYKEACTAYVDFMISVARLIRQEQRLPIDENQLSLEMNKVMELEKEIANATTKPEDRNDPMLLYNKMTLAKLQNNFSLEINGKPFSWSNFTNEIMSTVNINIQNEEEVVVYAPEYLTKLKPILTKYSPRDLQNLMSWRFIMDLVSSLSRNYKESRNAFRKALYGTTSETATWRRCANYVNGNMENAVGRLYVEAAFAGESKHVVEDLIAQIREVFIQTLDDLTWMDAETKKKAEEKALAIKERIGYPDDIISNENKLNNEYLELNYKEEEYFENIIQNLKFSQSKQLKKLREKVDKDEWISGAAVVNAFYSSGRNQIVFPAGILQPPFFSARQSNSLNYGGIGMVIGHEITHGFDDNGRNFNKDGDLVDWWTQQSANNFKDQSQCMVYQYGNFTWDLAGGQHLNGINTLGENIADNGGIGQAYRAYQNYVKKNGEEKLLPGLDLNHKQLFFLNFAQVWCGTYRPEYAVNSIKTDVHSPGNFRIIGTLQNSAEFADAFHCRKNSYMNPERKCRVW
Put plainly: In vitro inhibitory activity against neutral endopeptidase (NEP).
What is called pIC50 is the IC50 on a negative log10 scale, so that one unit is a factor of ten. A lower pIC50 goes with a large IC50. For `O=C(O)C(Cc1ccccc1-c1ccccc1)NCP(=O)(O)O` (configuration not stated), the negative-log IC50 (pIC50) is < 6.00. The value for `O=C(O)C[C@H](Cc1ccc(-c2ccccc2)cc1)NCP(=O)(O)O` was 7.82; that for `O=C(O)CC[C@H](Cc1ccc(-c2ccccc2)cc1)NCP(=O)(O)O` was 6.19. As to `O=C(Nc1nn[nH]n1)[C@H](Cc1ccc(-c2ccccc2)cc1)NCP(=O)(O)O`, the negative-log IC50 (pIC50) is 8.85. The value for `COc1cc(C[C@H](NCP(=O)(O)O)c2nnn[nH]2)ccc1-c1ccccc1` was 8.82; that for `O=P(O)(O)CN[C@@H](Cc1ccc2ccccc2c1)c1nnn[nH]1` was 6.44. Turning to `O=P(O)(O)CNC(c1nnn[nH]1)C(c1ccccc1)c1ccccc1` (configuration not stated), the pIC50 was < 6.00. For `O=C(O)CCNC(=O)[C@H](Cc1ccc(-c2ccccc2)cc1)NCP(=O)(O)O` the value was 5.72; for `O=C(O)[C@H](Cc1ccccc1)NCP(=O)(O)O`, < 6.00; for `COc1cc(C[C@H](NCP(=O)(O)O)C(=O)O)ccc1-c1ccccc1`, 7.85.

In turn, `O=C(O)/C=C/[C@H](Cc1ccc(-c2ccccc2)cc1)NCP(=O)(O)O` had a negative logarithm of the IC50 (pIC50) of 7.49. As for `CC(C)Oc1ccc(C[C@H](NCP(=O)(O)O)c2nnn[nH]2)cc1`, the pIC50 was 7.82. `O=P(O)(O)CN[C@@H](CCc1ccccc1)c1nnn[nH]1`: the negative logarithm of the IC50 (pIC50) was < 5.00.

As to `O=C(O)[C@H](Cc1ccc(-c2ccccc2)cc1)NCCP(=O)(O)O`, the negative-log IC50 (pIC50) was < 5.00. The value for `O=C(NCc1ccccc1)[C@H](Cc1ccc(-c2ccccc2)cc1)NCP(=O)(O)O` was 6.51; that for `Cc1ccc(-c2ccc(C[C@H](NCP(=O)(O)O)C(=O)O)cc2)cc1` was 6.63; that for `CN(CP(=O)(O)O)[C@@H](Cc1ccc(-c2ccccc2)cc1)c1nnn[nH]1` was 6.28. Consider `NC(=O)[C@H](Cc1ccc(-c2ccccc2)cc1)NCP(=O)(O)O`, for which the pIC50 was 5.89.

Take `O=C(O)C(Cc1cccc(-c2ccccc2)c1)NCP(=O)(O)O` (configuration not stated): the pIC50 is < 6.00. The value for `O=C(O)[C@H](Cc1ccc(-c2cccnc2)cc1)NCP(=O)(O)O` was < 6.00. For the molecule `O=P(O)(O)CN[C@@H](Cc1ccccc1)c1nnn[nH]1`, the pIC50 was 7.59. The value for `O=P(O)(O)CN[C@@H](Cc1ccc(-c2ccccc2)cc1)c1nnnn1Cc1ccccc1` was < 6.00.

The record behind these values is ChEMBL document CHEMBL1128900, “Non-peptidic inhibitors of neutral endopeptidase 24.11 1. Discovery and optimization of potency” (Bioorg Med Chem Lett, 1995).
